The source of these data is patent publication US20110045101A1, “FUNGICIDAL SUBSTITUTED AZOLES” (E.I. Du Pont De Nemours and Company, priority 2009, published 2011).

Type in all cases: in vivo
In one experiment the test system is Botrytis cinerea. Nature of the experiment: Test C: tomato Botrytis on tomato seedlings, sprayed the day before inoculation, visual disease rating. The settings on record: Botrytis cinerea, 120 h, 100 = 100% disease control; for pest or weed control at 200 ppm: 0 = no control relative to controls; for pest or weed control at 40 ppm: 40 ppm (marked *). The gist of the method: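 Each compound is first taken up in acetone at 3% of the final volume and then brought to the desired ppm in a 50:50 acetone–water mix with 250 ppm surfactant (polyhydric alcohol esters). Tomato seedlings receive the suspension to run-off, normally at 200 ppm, occasionally 40 ppm.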

Another experiment deals with Septoria nodorum. Nature of the experiment: Test F: wheat glume blotch on wheat seedlings, sprayed the day before inoculation, visual disease rating. The settings on record: Parastagonospora nodorum, 264 h, 100 = 100% disease control; for pest or weed control at 200 ppm: 0 = no control relative to controls; for pest or weed control at 40 ppm: 40 ppm (marked *). The gist of the method:
(§1)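 Test rate was 200 ppm, sprayed to run-off and equal to 500 g/ha, or 40 ppm where marked. The compound was first taken up in acetone at 3% of final volume and suspended in acetone/purified water (50/50) containing 250 ppm Trem® 014.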

A further experiment relates to Alternaria solani. Nature of the experiment: Test D: tomato early blight, sprayed the day before inoculation, visual disease rating. The settings on record: Alternaria solani, 168 h, 100 = 100% disease control; for pest or weed control at 200 ppm: 0 = no control relative to controls; for pest or weed control at 40 ppm: 40 ppm (marked *). The procedure, abridged: as §1

The subject of experiment [1] is Puccinia recondita f. sp. tritici. Nature of the experiment: Test H: wheat leaf rust, test suspension sprayed after inoculation of wheat seedlings, visual disease rating. Particulars: Puccinia recondita, 96 h, 100 = 100% disease control; for pest or weed control at 200 ppm: 0 = no control relative to controls; for pest or weed control at 40 ppm: 40 ppm (marked *). The text has this:
General protocol for preparing test suspensions for Tests A-J: The test compounds were first dissolved in acetone in an amount equal to 3% of the final volume and then suspended at the desired concentration (in ppm) in acetone and purified water (50/50 mix) containing 250 ppm of the surfactant Trem® 014 (polyhydric alcohol esters). The resulting test suspensions were then used in tests A-J. Spraying a 200 ppm test suspension to the point of run-off on the test plants was the equivalent of a rate of 500 g/ha. […] Wheat seedlings were inoculated with a spore suspension of Puccinia recondita f. sp. tritici (the causal agent of wheat leaf rust) and incubated in a saturated atmosphere at 20° C. for 24 h, and then moved to a growth chamber at 20° C. for 2 days. […] A dash (-) indicates no test results. All results are for 200 ppm except where followed by “*”, which indicates 40 ppm.

The subject of another experiment is Septoria tritici. Nature of the experiment: Test G: wheat leaf blotch on wheat seedlings, sprayed the day before inoculation, visual disease rating. Particulars: Zymoseptoria tritici, 504 h, 100 = 100% disease control; for pest or weed control at 200 ppm: 0 = no control relative to controls; for pest or weed control at 40 ppm: 40 ppm (marked *). The gist of the method:
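Spray to run-off, 200 ppm (≈500 g/ha; starred = 40 ppm), acetone/water 50/50 + 250 ppm Trem® 014. Spore inoculation +1 d. 24° C saturated 48 h → 20° C 19 d. Visual rating.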

Experiment [2] has as its system Erysiphe graminis f. sp. tritici. Nature of the experiment: Test J: wheat powdery mildew on wheat seedlings, sprayed the day before inoculation, visual disease rating. Particulars: Blumeria graminis, 168 h, 100 = 100% disease control; for pest or weed control at 200 ppm: 0 = no control relative to controls; for pest or weed control at 40 ppm: 40 ppm (marked *). The procedure, abridged: as §1

Experiment [3] has as its system Puccinia recondita f. sp. tritici. Nature of the experiment: Test I: wheat leaf rust on wheat seedlings, sprayed the day before inoculation, visual disease rating. Particulars: Puccinia recondita, 168 h, 100 = 100% disease control; for pest or weed control at 200 ppm: 0 = no control relative to controls; for pest or weed control at 40 ppm: 40 ppm (marked *). The procedure, abridged:
as §1

On to `N#Cc1ccc(F)c(-c2c(Cl)nc(Br)n2-c2ccc(Cl)cc2)c1F` [Compound 419, 3-[2-bromo-4-chloro-1-(4-chlorophenyl)-1H-imidazol-5-yl]-2,4-difluorobenzonitrile], for which the pest or weed control (as a rule, the degree to which the test organism was suppressed or injured, in per cent) at 200 ppm in the experiment with Botrytis cinerea was found to be 100%; in the experiment with Septoria nodorum it was 100%; in the experiment with Alternaria solani it was 100%; in experiment [1], 0%; with Septoria tritici, 100%; in experiment [2] it was 99%. In experiment [3], this compound returned a pest or weed control at 200 ppm of 97%.
For `Cc1nc(Cl)c(-c2c(F)ccc(C#N)c2F)n1-c1ccc(Cl)cc1` [Compound 430, 3-[4-chloro-1-(4-chlorophenyl)-2-methyl-1H-imidazol-5-yl]-2,4-difluorobenzonitrile], the pest or weed control at 200 ppm turned out to be 100% in the experiment on Botrytis cinerea; 100% in the experiment on Septoria nodorum; 100% in the experiment on Alternaria solani; 0% in experiment [1]; 100% with Septoria tritici; 100% in experiment [2]. In experiment [3], this compound came in with a pest or weed control at 200 ppm of 100%.
Consider `Fc1cccc(F)c1-c1c(Br)nc(CCBr)n1-c1ccc(Cl)cc1` [Compound 475, 4-bromo-2-(bromoethyl)-1-(4-chlorophenyl)-5-(2,6-difluorophenyl)-1H-imidazole], for which the pest or weed control at 200 ppm in the experiment with Botrytis cinerea turned out to be 98%; in the experiment with Septoria nodorum, 0%; in the experiment with Alternaria solani it was 26%; in experiment [1] it was 0%; in the experiment on Septoria tritici, 92%; in experiment [2], 42%. For the same compound, the pest or weed control at 200 ppm in experiment [3] was 87%.
Take `COc1ccc(F)c(-c2c(Br)nc(Br)n2-c2ccc(F)cc2)c1F` [Compound 504, 2,4-dibromo-5-(2,6-difluoro-3-methoxyphenyl)-1-(4-fluorophenyl)-1H-imidazole]: the pest or weed control at 200 ppm in the experiment on Botrytis cinerea worked out at 99%; with Septoria nodorum, 100%; with Alternaria solani it was 100%; in experiment [1], 0%; with Septoria tritici, 97%; in experiment [2] it was 100%. Further, the pest or weed control at 200 ppm in experiment [3] was 99%.
Consider `N#CCc1nc(Br)c(-c2c(F)cccc2F)n1-c1ccc(Cl)cc1` [Compound 509, 4-bromo-1-(4-chlorophenyl)-5-(2,6-difluorophenyl)-1H-imidazole-2-acetonitrile], for which the pest or weed control at 200 ppm in the experiment on Botrytis cinerea was 98%; in the experiment with Septoria nodorum, 0%; in the experiment on Alternaria solani, 77%; in experiment [1] it was 9%; with Septoria tritici, 92%; in experiment [2], 78%. In experiment [3], this compound had a pest or weed control at 200 ppm of 85%.
`COC(=O)Cc1nc(Br)c(-c2c(F)cccc2F)n1-c1ccc(Cl)cc1` [Compound 544, methyl 4-bromo-1-(4-chlorophenyl)-5-(2,6-difluorophenyl)-1H-imidazole-2-acetate]: the pest or weed control at 200 ppm came to 84% with Botrytis cinerea; 0% with Septoria nodorum; 98% in the experiment on Alternaria solani; 9% in experiment [1]; 82% with Septoria tritici; 86% in experiment [2]. In experiment [3], this compound yielded a pest or weed control at 200 ppm of 91%.
For `COc1ccc(F)c(-c2c(C)nc(C)n2-c2ccc(F)cc2)c1F` [Compound 549, 5-(2,6-difluoro-3-methoxyphenyl)-1-(4-fluorophenyl)-2,4-dimethyl-1H-imidazole], the pest or weed control at 200 ppm in the experiment on Botrytis cinerea turned out to be 100%; in the experiment with Septoria nodorum, 99%; in the experiment on Alternaria solani, 100%; in experiment [1], 0%; with Septoria tritici, 98%; in experiment [2], 100%. In experiment [3], this compound gave a pest or weed control at 200 ppm of 100%.
For the compound `O=C(O)Cc1nc(Br)c(-c2c(F)cccc2F)n1-c1ccc(Cl)cc1` [Compound 570, 4-bromo-1-(4-chlorophenyl)-5-(2,6-difluorophenyl)-1H-imidazole-2-acetic acid], the pest or weed control at 200 ppm with Botrytis cinerea was determined as 0%; in the experiment on Septoria nodorum, 0%; in the experiment with Alternaria solani it was 0%; in experiment [1], 0%; with Septoria tritici it was 97%; in experiment [2], 69%. This compound displayed a pest or weed control at 200 ppm in experiment [3] of 13%.
On to `CNC(=O)Cc1nc(Br)c(-c2c(F)cccc2F)n1-c1ccc(Cl)cc1` [Compound 571, 4-bromo-1-(4-chlorophenyl)-5-(2,6-difluorophenyl)-N-methyl-1H-imidazole-2-acetamide], for which the pest or weed control at 200 ppm in the experiment with Botrytis cinerea is 33%; in the experiment with Septoria nodorum it was 0%; in the experiment on Alternaria solani, 0%; in experiment [1] it was 0%; in the experiment on Septoria tritici, 82%; in experiment [2] it was 0%. The pest or weed control at 200 ppm in experiment [3] came to 90%.
Take `C=Cc1nc(Cl)c(-c2c(F)ccc(OC)c2F)n1-c1cccc(OC(F)F)c1` [Compound 583, 4-chloro-1-[3-(difluoromethoxy)phenyl]-5-(2,6-difluoro-3-methoxyphenyl)-2-ethenyl-1H-imidazole]: the pest or weed control at 200 ppm in the experiment on Botrytis cinerea worked out at 99%; in the experiment with Septoria nodorum it was 0%; in the experiment on Alternaria solani, 97%; in experiment [1], 0%; in the experiment with Septoria tritici, 94%; in experiment [2], 83%. This compound registered a pest or weed control at 200 ppm in experiment [3] of 85%.
For the compound `Cc1ccc(-n2c(C)nc(Cl)c2-c2c(F)cc(O)cc2F)cc1` [Compound 624, 4-[4-chloro-2-methyl-1-(4-methylphenyl)-1H-imidazol-5-yl]-3,5-difluorophenol], the pest or weed control at 200 ppm in the experiment with Botrytis cinerea is 99%; with Septoria nodorum, 0%; with Alternaria solani it was 64%; in experiment [1] it was 0%; in the experiment on Septoria tritici it was 94%; in experiment [2] it was 90%. In experiment [3], this compound displayed a pest or weed control at 200 ppm of 99%.
For the compound `COc1cc(OC)cc(-n2cnc(C)c2-c2c(F)cc(OC)cc2F)c1` [Compound 632, 5-(2,6-difluoro-4-methoxyphenyl)-1-(3,5-dimethoxyphenyl)-4-methyl-1H-imidazole], the pest or weed control at 200 ppm with Botrytis cinerea is 99%; with Septoria nodorum, 0%; with Alternaria solani it was 100%; in experiment [1] it was 99%; in the experiment on Septoria tritici, 98%; in experiment [2] it was 97%. Besides, the pest or weed control at 200 ppm in experiment [3] is 100%.
For the compound `COc1cc(F)c(-n2cnc(C)c2-c2ccc(Cl)nc2)c(F)c1` [Compound 685, 2-chloro-5-[1-(2,6-difluoro-4-methoxyphenyl)-4-methyl-1H-imidazol-5-yl]pyridine], the pest or weed control at 40 ppm in the experiment on Botrytis cinerea was found to be 100%; in the experiment on Septoria nodorum, 0%; in the experiment with Alternaria solani it was 99%; in experiment [1], 0%; in the experiment with Septoria tritici, 87%; in experiment [2], 64%. In addition, the pest or weed control at 40 ppm in experiment [3] amounted to 68%.
For the compound `COc1cc(OC)cc(-n2c(Cl)nc(C)c2-c2c(F)cc(OC)cc2F)c1` [Compound 694, 2-chloro-5-(2,6-difluoro-4-methoxyphenyl)-1-(3,5-dimethoxyphenyl)-4-methyl-1H-imidazole], the pest or weed control at 40 ppm was 100% in the experiment on Botrytis cinerea; 99% in the experiment with Septoria nodorum; 100% with Alternaria solani; 0% in experiment [1]; 98% in the experiment with Septoria tritici; 98% in experiment [2]. The compound further came in with a pest or weed control at 40 ppm in experiment [3] of 99%.
